We go through one molecule from article PMC11574021, “CEP192 localises mitotic Aurora-A activity by priming its interaction with TPX2” (The EMBO Journal, 2024).

What all share (type): cell-based, Homo sapiens
Assay [1] has as its system TCTP-pS46 in RPE1 p53-/- cells. Description: Western blot densitometry, TCTP-pS46, RPE1 p53-/-. The following applies: mitotic RPE1 p53-/- lysates, inhibitor 30 min. The method, then: (§1) For measuring monopolar spindle diameter and counting centriolar foci by immunofluorescence, cells were treated with 10 µM STLC for 1 h and 4 h prior to fixation, respectively.
(§2) Drugs were resuspended in DMSO to the stock concentrations indicated in square brackets.
(§3) Cells were lysed on ice for 30 min in lysis buffer (50 mM tris pH 8.0, 300 mM NaCl, 0.2%(v/v) NP-40, 10%(v/v) glycerol, protease inhibitor cocktail C, phosphatase inhibitor cocktail 3 (Sigma, 1:200 dilution), 100 nM okadaic acid (Enzo, ALX-350-003-C100)). Lysates were then centrifuged at 14,000 × g, 15 min, 4 °C, the supernatants were transferred to a fresh tube, and the pellet was discarded. Protein concentrations were measured by Bradford assay using Protein Assay Dye Reagent Concentrate (Bio-Rad Laboratories, 5000006). NuPage LDS sample buffer, supplemented with NuPAGE sample reducing agent (Invitrogen) were added prior to boiling for 10 min at 90 °C. […] Nitrocellulose was then blocked in 5% milk (wt/v) in TBS, 0.1% Tween (v/v) (TBST) for 1 h. Primary and secondary antibodies were diluted in 5% milk, TBST and incubated overnight at 4 °C or for 1 h at room temperature, respectively. […]
(§4) Densitometric quantification of western blots was also performed in ImageJ. Intensity was measured in a rectangular region of interest (ROI) around each band. […] An adjacent region was also measured to account for background intensity.

The subject of assay [2] is LATS2-pS83 in RPE1 p53-/- cells. The assay is described as follows: Immunofluorescence, LATS2-pS83 spindle pole signal intensity, RPE1 p53-/-. The following applies: Aurora-A inhibitor 30 min (500 nM). The method, then: (§5) As noted in the figures, the following drugs were incubated with cells for 30 min at 37 °C: Aurora-B-i ZM447439 2 µM [10 mM], PLK1-I BI2536 1 µM [10 mM] and Aurora-A-i MLN8237 [5 mM] was used at 250 and 500 nM in U251 and RPE1 cells, respectively. Drugs were resuspended in DMSO to the stock concentrations indicated in square brackets. BI2536 (HY-50698), MLN8237 (HY-10971) and ZM447439 (HY-10128) were all purchased from MedChemExpress. For western blotting, a 20-min pre-treatment with proteasome inhibitor (20 µM MG-132, MerckMillipore, 47490 [20 mM]) was required prior to the addition of DMSO control or kinase inhibitors. This prevented mitotic exit as a consequence of checkpoint override following Aurora-A and Aurora-B inhibitor addition.
(§6) For siRNA depletion, 1 × 10^5 cells were seeded in six-well plates and transfected as described above for 48 h prior to fixation. For all other experiments, 2.5 × 10^5 cells were seeded in six-well plates and grown for 24 h before fixation. All cells were grown on 12 mm diameter glass coverslips (VWR, 631–1577). […]
(§7) For CEP192, LATS2-pS83, PCNT, PLK1 and γ-tubulin intensity, a 20-pixel diameter circle was centred over each centrosome and the intensity measured. […]

Assay [3] concerns PLK1-pT210 in RPE1 p53-/- cells. Description: Western blot densitometry, PLK1-pT210, RPE1 p53-/-. The following applies: mitotic RPE1 p53-/- lysates, inhibitor 30 min. The method, then: as §1, §2, §3, §4
The subject of assay [4] is PLK1 in RPE1 p53-/- cells. Description: Immunofluorescence, PLK1 centrosomal signal intensity, RPE1 p53-/-. The note with it: Aurora-A inhibitor 30 min. The method, then: as §5, §6, §7
For the next assay, the system named is Eg5 in RPE1 p53-/- cells. Description: Immunofluorescence, Eg5 spindle signal intensity, RPE1 p53-/-. The following applies: Aurora-A inhibitor 30 min (500 nM). How it is done: as §5, §6, §7
A further assay relates to γ-tubulin in RPE1 cells. The assay is described as follows: Immunofluorescence, γ-tubulin centrosomal signal intensity, RPE1. The note with it: RPE1 p53-/-, Aurora-A inhibitor 30 min. How it is done: as §5, §6, §7
The subject of assay [5] is NuMA in RPE1 p53-/- cells. Description: Immunofluorescence, NuMA spindle pole signal intensity, RPE1 p53-/-. The following applies: Aurora-A inhibitor 30 min (500 nM), compared with RΔ11. How it is done: as §5, §6, §7

Each structure is given as a SMILES string.

For the molecule `COc1cc(Nc2ncc3c(n2)-c2ccc(Cl)cc2C(c2c(F)cccc2OC)=NC3)ccc1C(=O)O` [Alisertib], the “phosphorylation of TCTP (pS46)” value in assay [1] was “decreased”. The entries for the “reduction of pS83 LATS2 levels” value in assay [2] and in assay [2] (listed as Aurora-A inhibition) were 50% and “about 50%”, respectively. In addition, the “T-loop phosphorylation of PLK1 (pT210)” value in assay [3] is reported as “decreased”. For the same molecule, the “centrosomal Plk1 levels” value in assay [4] is “negative trend”. Further, the “spindle levels of Eg5” value in the assay with Eg5 in RPE1 p53-/- cells is “decrease in spindle levels of Eg5”. The “centrosomal γ-tubulin” value in the assay on γ-tubulin in RPE1 cells was “significant drop in centrosomal γ-tubulin”. The “NuMA levels at spindle poles” value in assay [5] was “equally high in R∆11 and Aurora-A inhibitor-treated cells”.
